{
  "source": "ChEMBL document CHEMBL1143740",
  "about": "“Conformationally locked thiosugars as potent alpha-mannosidase inhibitors: synthesis, biochemical and docking studies” (Bioorg Med Chem, 2007)",
  "data": [
    {"assay": "Inhibition of jack bean alpha-mannosidase", "set-up": "species or system Canavalia ensiformis", "units": {"Ki": "nM"}, "values": [
      {"smiles": "OC1[C@H](O)C2CSC(O2)[C@H]1O", "note": "(single isomer, unassigned) [THIOLEVOMANNOSAN]", "Ki": 1380},
      {"smiles": "[O-][S+]1C[C@@H]2O[C@H]1[C@@H](O)[C@H](O)[C@@H]2O", "note": "(stereo partly drawn)", "Ki": 385},
      {"smiles": "O=S1(=O)C[C@@H]2O[C@H]1[C@@H](O)[C@H](O)[C@@H]2O", "Ki": 350}
    ]}
  ]
}
